In paper PMC6364417, “Kinase inhibitor library screening identifies synergistic drug combinations effective in sensitive and resistant melanoma cells” (Journal of Experimental & Clinical Cancer Research : CR, 2019):

Legend:
Experiment in all cases: Kinase inhibitor library screening, PrestoBlue cell viability, 1 or 10 μM, 72 h
[1] = system: A375-XP cells (Vemurafenib-resistant); settings: A375 XP, in %
[2] = system: A375-GP cells (Dabrafenib-resistant); settings: A375 GP, in %
501Mel cells (parental) = settings: 501Mel Parental, in %
Outline: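 Readout: PrestoBlue signal on a monochromator plate reader, given as percent viability relative to untreated controls. Parental and drug-resistant (Vemurafenib XP, Dabrafenib GP) sublines were tested; at least duplicates per line.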

[3] = system: 501Mel-GP cells (Dabrafenib-resistant); settings: 501Mel GP, in %
IGR37 cells (parental) = settings: IGR37 Parental, in %
[4] = system: IGR37-XP cells (Vemurafenib-resistant); settings: IGR37 XP, in %
[5] = system: IGR37-GP cells (Dabrafenib-resistant); settings: IGR37 GP, in %
A375 cells (parental) = settings: A375 Parental, in %
[6] = system: 501Mel-XP cells (Vemurafenib-resistant); settings: 501Mel XP, in %

| SMILES | cell viability (kinase inhibitor library screening) ([1]; 1μΜ) | cell viability (kinase inhibitor library screening) ([1]; 10μΜ) | cell viability (kinase inhibitor library screening) ([2]; 10μΜ) | cell viability (kinase inhibitor library screening) (501Mel cells (parental); 10μΜ) | cell viability (kinase inhibitor library screening) ([3]; 1μΜ) | cell viability (kinase inhibitor library screening) ([3]; 10μΜ) | cell viability (kinase inhibitor library screening) (IGR37 cells (parental); 1μΜ) | cell viability (kinase inhibitor library screening) (IGR37 cells (parental); 10μΜ) | cell viability (kinase inhibitor library screening) ([4]; 1μΜ) | cell viability (kinase inhibitor library screening) ([4]; 10μΜ) | cell viability (kinase inhibitor library screening) ([5]; 1μΜ) | cell viability (kinase inhibitor library screening) ([5]; 10μΜ) | cell viability (kinase inhibitor library screening) (A375 cells (parental); 1μΜ) | cell viability (kinase inhibitor library screening) (A375 cells (parental); 10μΜ) | cell viability (kinase inhibitor library screening) ([6]; 1μΜ) | cell viability (kinase inhibitor library screening) ([6]; 10μΜ) | cell viability (kinase inhibitor library screening) (501Mel cells (parental); 1μΜ) | cell viability (kinase inhibitor library screening) ([2]; 1μΜ) |
| --- | --- | --- | --- | --- | --- | --- | --- | --- | --- | --- | --- | --- | --- | --- | --- | --- | --- | --- |
| COc1cc(Nc2ncc(F)c(Nc3ccc4c(n3)NC(=O)C(C)(C)O4)n2)cc(OC)c1OC [R406(free base)] | 103.9 | 63.6 | 44.5 | 57.6 | 93.8 | 48.0 | 97.4 | 86.8 | 92.0 | 20.0 | 84.7 | 45.4 | 100.1 | 50.6 | 77.6 | 29.6 |  |  |
| COc1cc(Nc2ncc(F)c(Nc3ccc4c(n3)NC(=O)C(C)(C)O4)n2)cc(OC)c1OC.O=S(=O)(O)c1ccccc1 [R406] | 99.5 | 69.5 | 54.6 | 71.4 | 86.1 | 50.0 | 103.3 | 95.3 | 89.4 | 27.5 | 90.2 | 56.0 | 104.7 | 58.1 | 102.9 | 48.7 | 89.8 |  |
| COc1cc(Nc2ncc(F)c(Nc3ccc4c(n3)N(COP(=O)(O)O)C(=O)C(C)(C)O4)n2)cc(OC)c1OC [R788 (Fostamatinib)] | 93.7 | 63.9 | 49.0 | 76.6 | 90.2 | 61.2 | 99.8 | 77.8 | 89.9 | 12.1 | 87.5 | 21.3 | 95.5 | 47.5 | 82.4 | 25.1 | 98.5 | 89.5 |
| FC(F)(F)c1ccc(Nc2nc3ccc(Oc4ccnc(-c5ncc(C(F)(F)F)[nH]5)c4)cc3[nH]2)cc1 [Raf265 derivative] |  | 66.1 | 60.2 | 91.6 |  | 88.7 | 104.0 | 102.6 | 106.8 | 69.4 | 94.6 | 87.0 | 104.6 | 74.8 | 116.2 | 77.9 |  | 97.7 |
